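Assay format: 96-well plates, 48-hour exposure. Here, GI50 denotes the concentration required for 50% inhibition of growth. Definition used: TGI = concentration required for complete inhibition of growth.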
Columns and labels:
Experiment in all cases: DTP human tumour cell line panel, 48 h
HCT-116 colon = tested on: HCT-116 colon
NCI/ADR-RES ovarian = tested on: NCI/ADR-RES ovarian
HT29 colon = tested on: HT29 colon
MDA-MB-435 = tested on: MDA-MB-435
TK-10 renal = tested on: TK-10 renal
CCRF-CEM leukemia = tested on: CCRF-CEM leukemia
CAKI-1 renal = tested on: CAKI-1 renal
M14 melanoma = tested on: M14 melanoma
NCI-H23 lung = tested on: NCI-H23 lung
SNB-19 CNS = tested on: SNB-19 CNS
786-0 renal = tested on: 786-0 renal
OVCAR-5 ovarian = tested on: OVCAR-5 ovarian
SK-OV-3 ovarian = tested on: SK-OV-3 ovarian
SF-268 CNS = tested on: SF-268 CNS
SW-620 colon = tested on: SW-620 colon
BT-549 breast = tested on: BT-549 breast
UACC-257 melanoma = tested on: UACC-257 melanoma
U251 CNS = tested on: U251 CNS
EKVX NSCLC = tested on: EKVX NSCLC
MOLT-4 leukemia = tested on: MOLT-4 leukemia
SK-MEL-28 melanoma = tested on: SK-MEL-28 melanoma
HL-60(TB) leukemia = tested on: HL-60(TB) leukemia
HOP-62 NSCLC = tested on: HOP-62 NSCLC
HCT-15 colon = tested on: HCT-15 colon
SK-MEL-2 melanoma = tested on: SK-MEL-2 melanoma
OVCAR-3 ovarian = tested on: OVCAR-3 ovarian
HOP-92 NSCLC = tested on: HOP-92 NSCLC
COLO 205 colon = tested on: COLO 205 colon
OVCAR-8 ovarian = tested on: OVCAR-8 ovarian

Which TGI (HCT-116 colon) does the source give for COc1cc2nc(-c3ccc(C(F)(F)F)cc3)cc(OCCCN3CCCCC3)c2cc1OC here?
The TGI was 11.6 µM.

What about the GI50 (NCI/ADR-RES ovarian) of the same compound?
Its GI50 is 522 nM.

And the TGI (NCI/ADR-RES ovarian)?
Its TGI is 14.8 µM.

And the GI50 (HT29 colon)?
Its GI50 is 415 nM.

What about the TGI (HT29 colon) of the same compound?
Its TGI is 2520 nM.

What about the GI50 (MDA-MB-435) of the same compound?
Its GI50 is 1230 nM.

What about the TGI (MDA-MB-435) of the same compound?
Its TGI is 7.08 µM.

And the GI50 (TK-10 renal)?
The GI50 was 7.81 µM.

What about the TGI (TK-10 renal) of the same compound?
Its TGI is 24.5 µM.

What about the GI50 (CCRF-CEM leukemia) of the same compound?
The GI50 was 1830 nM.

What about the TGI (CCRF-CEM leukemia) of the same compound?
Its TGI is 10.6 µM.

And the GI50 (CAKI-1 renal)?
Its GI50 is 272 nM.

And the TGI (CAKI-1 renal)?
The TGI was 5.05 µM.

And the GI50 (M14 melanoma)?
The GI50 was 327 nM.

And the TGI (M14 melanoma)?
Its TGI is 1260 nM.

What about the GI50 (NCI-H23 lung) of the same compound?
Its GI50 is 1910 nM.

And the TGI (NCI-H23 lung)?
The TGI was 11.1 µM.

And the GI50 (SNB-19 CNS)?
Its GI50 is 2820 nM.

And the TGI (SNB-19 CNS)?
The TGI was 14.6 µM.

And the GI50 (786-0 renal)?
Its GI50 is 2170 nM.

What about the TGI (786-0 renal) of the same compound?
Its TGI is 6.59 µM.

What about the GI50 (OVCAR-5 ovarian) of the same compound?
The GI50 was 710 nM.

What about the TGI (OVCAR-5 ovarian) of the same compound?
The TGI was 16.5 µM.

And the GI50 (SK-OV-3 ovarian)?
Its GI50 is 2300 nM.

What about the TGI (SK-OV-3 ovarian) of the same compound?
Its TGI is 23.3 µM.

And the GI50 (SF-268 CNS)?
Its GI50 is 3.76 µM.

And the TGI (SF-268 CNS)?
Its TGI is 24.6 µM.

What about the GI50 (SW-620 colon) of the same compound?
Its GI50 is 2910 nM.

And the TGI (SW-620 colon)?
Its TGI is 13.3 µM.

What about the GI50 (BT-549 breast) of the same compound?
The GI50 was 1480 nM.

What about the TGI (BT-549 breast) of the same compound?
The TGI was 11.7 µM.

What about the GI50 (UACC-257 melanoma) of the same compound?
Its GI50 is 1700 nM.

What about the TGI (UACC-257 melanoma) of the same compound?
Its TGI is 5.27 µM.

And the GI50 (U251 CNS)?
The GI50 was 1100 nM.

And the TGI (U251 CNS)?
Its TGI is 14.8 µM.

And the GI50 (EKVX NSCLC)?
Its GI50 is 803 nM.

And the TGI (EKVX NSCLC)?
Its TGI is 14.6 µM.

And the GI50 (MOLT-4 leukemia)?
The GI50 was 1700 nM.

What about the TGI (MOLT-4 leukemia) of the same compound?
Its TGI is 8.56 µM.

And the GI50 (SK-MEL-28 melanoma)?
Its GI50 is 1260 nM.

What about the TGI (SK-MEL-28 melanoma) of the same compound?
The TGI was 2950 nM.

What about the GI50 (HL-60(TB) leukemia) of the same compound?
Its GI50 is 2910 nM.

What about the TGI (HL-60(TB) leukemia) of the same compound?
The TGI was 18.3 µM.

And the GI50 (HOP-62 NSCLC)?
The GI50 was 947 nM.

And the TGI (HOP-62 NSCLC)?
Its TGI is 13.6 µM.

And the GI50 (HCT-15 colon)?
Its GI50 is 399 nM.

And the TGI (HCT-15 colon)?
Its TGI is 10.1 µM.

What about the GI50 (SK-MEL-2 melanoma) of the same compound?
The GI50 was 2640 nM.

And the TGI (SK-MEL-2 melanoma)?
Its TGI is 8.89 µM.

What about the GI50 (OVCAR-3 ovarian) of the same compound?
Its GI50 is 2440 nM.

What about the TGI (OVCAR-3 ovarian) of the same compound?
Its TGI is 15.4 µM.

What about the GI50 (HOP-92 NSCLC) of the same compound?
Its GI50 is 678 nM.

What about the TGI (HOP-92 NSCLC) of the same compound?
The TGI was 7.08 µM.

And the GI50 (COLO 205 colon)?
The GI50 was 406 nM.

And the TGI (COLO 205 colon)?
The TGI was 1940 nM.

What about the GI50 (OVCAR-8 ovarian) of the same compound?
Its GI50 is 734 nM.

What about the TGI (OVCAR-8 ovarian) of the same compound?
The TGI was 20.4 µM.

Reference: PubChem BioAssay (NCI)
